In brackets after ≈: the same amount, converted by molar mass. Read-outs that look alike come from different tables or passages of the source. Residues, ends and D or L forms follow the SMILES beside them. No end group written: not given here.
Columns and labels:
S. aureus (ATCC 9144) = format: cell-based, Staphylococcus aureus
Procedure, shortened: (§1)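 Peptide fractions were incubated with actively growing bacteria in Mueller Hinton medium at a starting concentration of 3×10^4 cells per ml. Growth was monitored continuously in a Bioscreen C reader; polymyxin B served as reference.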

E. coli (ATCC 25922) = format: cell-based, Escherichia coli
Procedure, shortened: as §1

Pseudomonas aeruginosa = format: cell-based
Procedure, shortened: as §1

TNF-α = assay: Inhibition of LPS induced TNF-α response in THP-1 cells (ELISA); format: cell-based, human; details: Ratio TC50 (THP-1)/EC50 (anti-TNFα)
Experimental: FIG. 12. Antiinnflammatory response measured as inhibition of tumor necrosis factor alpha (TNF-α) response in THP-1 cells after stimulation with LPS. THP-1 cells (1×10^6 cells/ml) were treated with P17 derivates in different concentrations for 1 hour, and subsequently stimulated with 100 ng/ml LPS for 6 hours. LPS was used as control for induction of TNF-α. (set as 100% response), RPMI media was used as negative (non-stimulated) control, and cycloheximide (Chx, 10 μg/ml) was used as a an inhibitory control for LPS induced TNF-α. The data presented are the average of two parallells. (A) The effect of the peptides P17 HC and P17 HC (1-20). (B) The effect of the peptides P17 HC (11-20) and P17 HC-Br.
The THP-1 cells (ATCC, TIB-202) were maintained in suspension in RPMI-1640 medium with 25 mM HEPES and 2 mM Glutamax I supplemented with 10% FBS (growth medium) in a humidified atmosphere of 5% CO2 at 37° C. Cells to be used in the assay were grown to a density of 8×10^5-1×10^6 cells/ml. The cells were centrifuged for 7 min at 200 g and the cell pellet was resuspended to a concentration of 10^6 cells/ml in RPMI-1640 with 10% FBS.
To allow examination of antiinflammatory effects of the peptides on basal and stimulated cytokine production, peptide-treated macrophages were cultured in the presence of LPS and the levels of TNF-α were measured. The primary screening was based on a mammalian cell line; the human THP-1 line. This line is of monocyte/macrophage origin and responds to various stimuli by increased production of cytokines, like TNF-α and the IL-1β, (Wang et al. 2000). To induce monocyte-macrophage differentiation, THP-1 cells were cultured in 96-well culture plates (10^6 cells/well) in a volume of 100 μl RPMI 1640 medium, containing 50 ng/ml PMA (which is known to induce the maturation of monocytes) and incubated in a humidified atmosphere of 5% CO2, at 37° C. for 48 hours. The medium was then removed and the cells were washed with PBS, added 100 μl fresh medium (without PMA) and incubated for another 24 hours. Medium was removed and the adherent macrophages were treated with 100 μl of peptide solution (concentrations ranging from 0 to 400 μg/ml), diluted in RPMI-1640 medium with 25 mM HEPES and 2 mM Glutamax I, but without […] (assay medium). After incubation at 37° C. for 1 hour, the cells were added LPS (0.1 μg/ml) and further incubated for 6 hours. […] TNF-α concentrations were quantified by the Human TNF-α ELISA MAX kit (BioLegend), according to the manufacturer's instructions. Duplicate readings for each standard, control and sample were recorded. The average absorbance for each set of standards, controls, and samples was calculated using a standard curve. Concentrations were determined by extrapolation on the standard curve.

[1] = system: Corynebacterium glutamicum, ATCC 13032; format: cell-based; details: non-clinical isolate; 37° C.; 3×10^6 cells per ml
Experimental: (§2) The antibacterial activities of the different peptides were determined by continuous monitoring of bacterial growth with a Bioscreen C microbiology reader (Labsystems Oy, Helsinki, Finland). The test was performed in 100-well flat-bottomed honeycomb plates, in which 50 μl of test fractions were incubated with 50 μl of a suspension of an actively growing culture of bacteria diluted in Mueller Hinton medium to a starting concentration of 3×10^4 cells per ml. The Gram-negative bacteria, Listonella (Vibrio) anguillarum, serotype O2 (FT 1801, a fish pathogenic strain), Pseudomonas aeruginosa and E. coli (ATCC 25922), and the Gram-positive bacteria, C. glutamicum (ATCC 13032) and S. aureus (ATCC 9144), were chosen as test bacteria. The growth chamber was maintained at either 20 or 37° C. during the incubation period. The absorbance was measured at 2 h intervals for 48 h by a turbidometric method with vertical light photometry and a wide band filter (420-580 nm), which is more insensitive to color change in the sample compared to single wavelength detection. Antibacterial activity was determined when the optical density (OD) of the growth control (bacteria plus water) reached an absorbance of 0.3-0.4. Fractions were regarded as active when the OD was less than 50% of the growth control. Polymyxin B (Sigma, St. Louis, Mo., USA), Lactoferricin B, Cecropin P1 and Hyalophora cecropia Cecropin B were used as reference.
(§3) The antimicrobial molecules were also tested against drug resistant clinical isolates, such as the commonly encountered multi-resistant human pathogen S. aureus (MRSA) K15-64 and the glycopeptide (vancomycin)-resistant Enterococccus faecium (GREF) K9-28. The non-clinical isolates Escherichia coli (ATCC 25922), Pseudomonas aeruginosa (ATCC 27853), Corynebacterium glutamicum (ATCC 13032), and Staphylococcus aureus (ATCC 9144) were also tested for comparison. Serial dilutions of synthetic peptides were made in double distilled water and tested according to the method described above. However, in these experiments the starting concentration of bacteria were 3×10^6 cells per ml and the temperature in the growth chamber was 37° C. Polymyxin B was used as positive control for the Gram-negative bacteria.

Pseudomonas K15-60 = format: cell-based
Experimental: as §2, §3

Klebsiella K15-72 = format: cell-based; details: clinical isolate; 37° C.; 3×10^6 cells per ml
Experimental: as §2, §3

Salmonella K14-40 = format: cell-based; details: clinical isolate; 37° C.; 3×10^6 cells per ml
Experimental: as §2, §3

[2] = system: Citrobacter freundii, K15-75; format: cell-based; details: clinical isolate; 37° C.; 3×10^6 cells per ml
Experimental: as §2, §3

Molecule: CC[C@H](C)[C@H](NC(=O)CNC(=O)[C@H](CO)NC(=O)[C@H](CCCCN)NC(=O)[C@@H](NC(=O)[C@H](C)NC(=O)[C@H](Cc1c[nH]cn1)NC(=O)[C@H](CO)NC(=O)[C@@H](NC(=O)[C@H](CCCCN)NC(=O)[C@H](Cc1c[nH]cn1)NC(=O)[C@H](Cc1ccccc1)NC(=O)[C@@H](NC(=O)[C@H](CCCCN)NC(=O)[C@H](CCCCN)NC(=O)[C@H](Cc1ccccc1)NC(=O)C(Cc1c[nH]c2ccc(Br)cc12)NC(=O)CN)[C@@H](C)O)C(C)C)C(C)C)C(=O)N[C@@H](Cc1c[nH]cn1)C(=O)N[C@@H](C)C(=O)O (stereo partly drawn) [P17 HC-Br (1-20)] (HELM PEPTIDE1{G.[O=C(C(Cc1c[nH]c2ccc(Br)cc12)N[*:1])[*:2]].F.K.K.T.F.H.K.V.S.H.A.V.K.S.G.I.H.A}$$$$V2.0; N-terminus and C-terminus assumed)
- Minimal inhibitory concentration, S. aureus (S. aureus (ATCC 9144); ATCC 9144): 100 µM (≈ 234 µg/mL)
- Minimal inhibitory concentration, E. coli (E. coli (ATCC 25922)): 6.25 µM (≈ 14.7 µg/mL)
- Minimal inhibitory concentration, P. aeruginosa (Pseudomonas aeruginosa): 6.25 µM (≈ 14.7 µg/mL)

Molecule: CC[C@H](C)[C@H](NC(=O)CNC(=O)[C@H](CO)NC(=O)[C@H](CCCCN)NC(=O)[C@@H](NC(=O)[C@H](C)NC(=O)[C@H](Cc1c[nH]cn1)NC(=O)[C@H](CO)NC(=O)[C@@H](NC(=O)[C@H](CCCCN)NC(=O)[C@H](Cc1c[nH]cn1)NC(=O)[C@H](Cc1ccccc1)NC(=O)[C@@H](NC(=O)[C@H](CCCCN)NC(=O)[C@H](CCCCN)NC(=O)[C@H](Cc1ccccc1)NC(=O)C(Cc1c[nH]c2ccc(Br)cc12)NC(=O)CN)[C@@H](C)O)C(C)C)C(C)C)C(=O)N[C@@H](Cc1c[nH]cn1)C(=O)N[C@@H](C)C(=O)NCC(=O)N[C@@H](CCC(N)=O)C(=O)N[C@@H](CCCNC(=N)N)C(=O)NCC(=O)N[C@@H](CS)C(=O)N[C@@H](CO)C(=O)N[C@@H](C)C(=O)N[C@@H](CC(C)C)C(=O)NCC(=O)N[C@@H](Cc1ccccc1)C(=O)O (stereo partly drawn) [P17 HC-Br] (HELM PEPTIDE1{G.[O=C(C(Cc1c[nH]c2ccc(Br)cc12)N[*:1])[*:2]].F.K.K.T.F.H.K.V.S.H.A.V.K.S.G.I.H.A.G.Q.R.G.C.S.A.L.G.F}$$$$V2.0)
- Therapeutic index TC50/EC50 (TNF-α): 46.5
- Minimal inhibitory concentration, S. aureus (S. aureus (ATCC 9144); 37° C.): 6.25 µM (≈ 20.8 µg/mL)
- Minimal inhibitory concentration, S. aureus (S. aureus (ATCC 9144); ATCC 9144): 1.56 µM (≈ 5.18 µg/mL)
- Minimal inhibitory concentration, Corynebacterium glutamicum, ATCC 13032 [1]: 0.78 µM (≈ 2.59 µg/mL)
- Minimal inhibitory concentration, Pseudomonas K15-60 (Pseudomonas K15-60): 3.12 µM (≈ 10.4 µg/mL)
- Minimal inhibitory concentration, Klebsiella K15-72 (Klebsiella K15-72): 3.12 µM (≈ 10.4 µg/mL)
- Minimal inhibitory concentration, Salmonella K14-40 (Salmonella K14-40): 6.25 µM (≈ 20.8 µg/mL)
- Minimal inhibitory concentration, Citrobacter freundii, K15-75 [2]: 1.56 µM (≈ 5.18 µg/mL)
- Minimal inhibitory concentration, E. coli (E. coli (ATCC 25922)): 1.56 µM (≈ 5.18 µg/mL)
- Minimal inhibitory concentration, P. aeruginosa (Pseudomonas aeruginosa): 3.12 µM (≈ 10.4 µg/mL)

Molecule: GWFKKTFHKVSHAVKSGIHA [P17 HC (1-20)]
- Therapeutic index TC50/EC50 (TNF-α): >17.4
- Minimal inhibitory concentration, S. aureus (S. aureus (ATCC 9144); ATCC 9144): 100 µM
- Minimal inhibitory concentration, Corynebacterium glutamicum, ATCC 13032 [1]: 3.12 µM
- Minimal inhibitory concentration, Pseudomonas K15-60 (Pseudomonas K15-60): 12.5 µM
- Minimal inhibitory concentration, Klebsiella K15-72 (Klebsiella K15-72): >50 µM
- Minimal inhibitory concentration, Salmonella K14-40 (Salmonella K14-40): 50 µM
- Minimal inhibitory concentration, Citrobacter freundii, K15-75 [2]: 12.5 µM
- Minimal inhibitory concentration, E. coli (E. coli (ATCC 25922)): 6.25 µM
- Minimal inhibitory concentration, P. aeruginosa (Pseudomonas aeruginosa): 6.25 µM

Molecule: GWFKKTFHKVSHAVKSGIHAGQRGCSALGF [P17 HC]
- Therapeutic index TC50/EC50 (TNF-α): 13.6
- Minimal inhibitory concentration, Corynebacterium glutamicum, ATCC 13032 [1]: 0.78 µM
- Minimal inhibitory concentration, Pseudomonas K15-60 (Pseudomonas K15-60): 3.12 µM
- Minimal inhibitory concentration, Klebsiella K15-72 (Klebsiella K15-72): 3.12 µM
- Minimal inhibitory concentration, Salmonella K14-40 (Salmonella K14-40): 6.25 µM
- Minimal inhibitory concentration, Citrobacter freundii, K15-75 [2]: 0.78 µM
- Minimal inhibitory concentration, E. coli (E. coli (ATCC 25922)): 1.56 µM
- Minimal inhibitory concentration, P. aeruginosa (Pseudomonas aeruginosa): 3.12 µM

From US20100093642A1, “NOVEL POLYPEPTIDES” (priority 2006, published 2010)
